Results reported in US12252481B2, “Anti-viral compounds” (Aligos Therapeutics, Inc., priority 2021, dated 2025).
Like-named read-outs stand apart in the source and are kept apart here.

Columns and labels:
[1] = biological target: T1, SARS-Cov-2 3CLpro (Severe acute respiratory syndrome coronavirus 2, UniProt P0DTD1); assay: biochemical; conditions: read-out: SARS-Cov-2 IC50 (class)
T1 construct: 3CLpro and HRV3C was added using a Multidrop Combi

[2] = tested on: human beta-coronavirus OC43; assay: OC43 coronavirus antiviral assay in HeLa cells (cytopathic effect, cell-titer-glo); type: cell-based; conditions: 6 days at 33° C.
[3] = tested on: A549-dual_ACE2_TMPRSS2 cells; conditions: read-out: A549-dual_ACE2_TMPRSS2 (CC50); assay medium without virus, MTS, numeric values
[4] = tested on: HeLa cells; assay: Cytotoxicity in HeLa cells without OC43 virus (cell-titer-glo); conditions: HeLa cells without OC43 virus
[5] = tested on: B.1.1.7 lineage SARS-CoV-2; assay: microbe, parasite or virus in culture; type: cell-based; conditions: read-out: A549-dual_ACE2_TMPRSS2 (EC50)
[6] = biological target: T2, HRV3C (Human rhinovirus 14, UniProt P03303); assay: biochemical; parameters: species or system HRV; conditions: HRV3C, 30 mins preincubation, SAMDI-MS; read-out: HRV IC50 (bound)
T2 construct: 3CLpro and HRV3C was added using a Multidrop Combi
T2 sequence (P03303 1538-1719): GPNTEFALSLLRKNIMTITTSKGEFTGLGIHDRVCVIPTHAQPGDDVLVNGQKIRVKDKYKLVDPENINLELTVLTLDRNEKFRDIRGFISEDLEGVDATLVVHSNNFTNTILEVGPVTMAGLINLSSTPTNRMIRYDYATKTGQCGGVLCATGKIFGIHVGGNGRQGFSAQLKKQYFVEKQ

[7] = biological target: T3, human cathepsin L (Homo sapiens, UniProt P07711); assay: Cathepsin L assay (Z-FR-AMC fluorescence); type: biochemical; conditions: 10 pM human cathepsin L, 30 mins preincubation, Z-FR-AMC 2 μM
T3 construct: purchased R&D Systems
T3 sequence (P07711 114-333): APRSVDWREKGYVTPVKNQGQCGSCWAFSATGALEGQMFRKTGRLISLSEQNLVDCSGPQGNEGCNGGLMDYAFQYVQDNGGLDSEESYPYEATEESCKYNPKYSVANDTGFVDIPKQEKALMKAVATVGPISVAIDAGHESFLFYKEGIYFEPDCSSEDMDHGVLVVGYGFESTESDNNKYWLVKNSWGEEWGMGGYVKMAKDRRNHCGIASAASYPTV
Procedure, shortened: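 Human cathepsin L (10 pM) was preincubated 30 min with compound, then reactions were started with Z-FR-AMC substrate (2 μM final). AMC fluorescence (355/460 nm) was read every 2 min over 30 min. IC50 came from a four-parameter curve fit.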

[8] = tested on: SARS-CoV-2-GHB-03021/2020; type: cell-based; conditions: read-out: VeroE6 + CP (EC50)
[9] = 3CLpro, 30 mins preincubation, SAMDI-MS
[10] = Betacoronavirus 1, OC43, HeLa, 144 h, read-out: EC50 (class)
[11] = Severe acute respiratory syndrome coronavirus 2, 96 h

SMILES	IC50 [1]	EC50 ([2]; read-out: EC50 (class))	CC50 [3]	CC50 [4]	EC50 [5]	IC50 [6]	IC50 [1, 9]	IC50 [7]	EC50 [2, 10]	EC50 [8]	EC50 [5, 11]	EC50 ([2]; Betacoronavirus 1, OC43, HeLa, 144 h, read-out: EC50 (bound))	EC50 ([5]; Severe acute respiratory syndrome coronavirus 2, 96 h, […], numeric bounds given instead of class symbols)
CC(C)(C)[C@H](NC(=O)C(F)(F)F)C(=O)N1C[C@@]2(F)[C@@H]([C@H]1C(=O)N[C@H](C#N)C[C@@H]1CCNC1=O)[C@H]1C=C[C@@H]2C1 [Example 94, (1R,2R,3S,6S,7S)—N-[(1S)-1-cyano-2-[(3S)-2-oxopyrrolidin-3-yl]ethyl]-4-[(2S)-3,3-dimethyl-2-(2,2,2-trifluoroacetamido)butanoyl]-6-fluoro-4-azatricyclo[5.2.1.0^{2,6}]dec-8-ene-3-carboxamide]	< 20 nM	< 100 nM	> 1000 nM	> 100000 nM	< 100 nM	> 500 nM							
CC(C)(C)[C@H](NC(=O)C(F)(F)F)C(=O)N1C[C@H]2[C@@H]([C@H]1C(=O)N[C@H](C#N)CC1CC3(COC3)NC1=O)[C@H]1C=C[C@@H]2C1 (stereo partly drawn) [Compound 106, (1R,2S,3S,6R,7S)—N-[(1S)-1-cyano-2-{6-oxo-2-oxa-5-azaspiro[3.4]octan-7-yl}ethyl]-4-[(2S)-3,3-dimethyl-2-(2,2,2-trifluoroacetamido)butanoyl]-4-azatricyclo[5.2.1.0^{2,6}]dec-8-ene-3-carboxamide]	< 20 nM	< 100 nM	> 10000 nM	> 100000 nM	< 100 nM	> 500 nM							
CC(C)(C)[C@H](NC(=O)C(F)(F)F)C(=O)N1C[C@@H]2[C@H]3CC[C@H](CC3)[C@@H]2[C@H]1C(=O)N[C@H](C#N)C[C@@H]1CCNC1=O [Compound 71b]		< 100 nM	> 10000 nM	> 100000 nM	< 100 nM	> 10000 nM	< 20 nM						
CC(C)(C)[C@H](NC(=O)C(F)(F)F)C(=O)N1C[C@H]2[C@@H]([C@H]1C(=O)N[C@H](C#N)C[C@@H]1CCNC1=O)[C@H]1C=C[C@@H]2CC1 [Compound 59b]		< 100 nM	> 10000 nM	> 100000 nM		> 10000 nM	< 20 nM	≥ 10000 nM					
[2H]C1([2H])C[C@@H](C[C@@H](C#N)NC(=O)[C@@H]2[C@@H]3[C@H](CN2C(=O)[C@@H](NC(=O)C(F)(F)F)C(C)(C)C)[C@@H]2C=C[C@H]3C2)C(=O)N1 [Compound 50, (1S,3aR,4S,7R,7aS)-N-((S)-1-cyano-2-((S)-2-oxopyrrolidin-3-yl-5,5-d2)ethyl)-2-((S)-3,3-dimethyl-2-(2,2,2-trifluoroacetamido)butanoyl)-2,3,3a,4,7,7a-hexahydro-1H-4,7-methanoisoindole-1-carboxamide]						> 10000 nM	< 20 nM	≥ 10000 nM	< 100 nM	< 100 nM	< 100 nM		
CC(C)(C)[C@H](NC(=O)C1COC1)C(=O)N1C[C@H]2[C@@H]([C@H]1C(=O)N[C@H](C#N)C[C@@H]1CCNC1=O)[C@H]1C=C[C@@H]2C1 [Example 36, (1R,2S,3S,6R,7S)—N-[(1S)-1-cyano-2-[(3S)-2-oxopyrrolidin-3-yl]ethyl]-4-[(2S)-3,3-dimethyl-2-(oxetan-3-ylformamido)butanoyl]-4-azatricyclo[5.2.1.0^{2,6}]dec-8-ene-3-carboxamide]						> 10000 nM	< 20 nM	≥ 10000 nM	100 to 1000 nM	100 to 1000 nM	1000 to 10000 nM		
CC(C)(C)[C@H](NC(=O)C(F)(F)F)C(=O)N1C[C@@H]2[C@H]3C[C@@H]([C@@H]2[C@H]1C(=O)N[C@H](C#N)C[C@@H]1CCNC1=O)[C@H]1[C@@H]3C1(F)F [Example 23, (1S,2S,3S,6R,7R,8R,10S)—N-[(1S)-1-cyano-2-[(3S)-2-oxopyrrolidin-3-yl]ethyl]-4-[(2S)-3,3-dimethyl-2-(2,2,2-trifluoroacetamido)butanoyl]-9,9-difluoro-4-azatetracyclo[5.3.1.0^{2,6}0.0^{8,10}]undecane-3-carboxamide]						> 10000 nM	20 to 200 nM	≥ 10000 nM	1000 to 10000 nM	100 to 1000 nM	100 to 1000 nM		
CC(C)(C)[C@H](OC1CC1)C(=O)N1C[C@H]2[C@@H]([C@H]1C(=O)N[C@H](C#N)C[C@@H]1CCNC1=O)[C@H]1C=C[C@@H]2C1 [Compound 54]						> 10000 nM	200 to 2000 nM	≥ 10000 nM		1000 to 10000 nM		> 10000 nM	> 10000 nM
CC1(C(NC(=O)C(F)(F)F)C(=O)N2C[C@H]3[C@@H]([C@H]2C(=O)N[C@H](C#N)C[C@@H]2CCNC2=O)[C@H]2C=C[C@@H]3C2)CC1 (stereo partly drawn) [Example 24, (1R,2S,3S,6R,7S)—N-[(1S)-1-cyano-2-[(3S)-2-oxopyrrolidin-3-yl]ethyl]-4-[2-(1-methylcyclopropyl)-2-(2,2,2-trifluoroacetamido)acetyl]-4-azatricyclo[5.2.1.0^{2,6}]dec-8-ene-3-carboxamide]						> 10000 nM	< 20 nM	≥ 10000 nM	< 100 nM	100 to 1000 nM	100 to 1000 nM		
C=CC(C)(C)[C@H](NC(=O)C(F)(F)F)C(=O)N1C[C@H]2[C@@H]([C@H]1C(=O)N[C@H](C#N)C[C@@H]1CCNC1=O)[C@H]1C=C[C@@H]2C1 [Example 28, (1R,2S,3S,6R,7S)—N-[(1S)-1-cyano-2-[(3S)-2-oxopyrrolidin-3-yl]ethyl]-4-[(2S)-3,3-dimethyl-2-(2,2,2-trifluoroacetamido)pent-4-enoyl]-4-azatricyclo[5.2.1.0^{2,6}]dec-8-ene-3-carboxamide]						> 10000 nM	< 20 nM	≥ 10000 nM	< 100 nM	< 100 nM	< 100 nM		
CC(C)(C)[C@H](NC(=O)C(F)(F)F)C(=O)N1C[C@@H]2[C@@H]3CC[C@@H](C3)[C@@H]2[C@H]1C(=O)N[C@H](C#N)C[C@@H]1CCNC1=O [Example 12, (1S,3aR,4R,7S,7aS)-N-((S)-1-cyano-2-((S)-2-oxopyrrolidin-3-yl)ethyl)-2-((S)-3,3-dimethyl-2-(2,2,2-trifluoroacetamido)butanoyl)octahydro-1H-4,7-methanoisoindole-1-carboxamide]						> 10000 nM	< 20 nM	≥ 10000 nM	< 100 nM	< 100 nM	< 100 nM		
CC(C)(C)[C@H](NC(=O)C(F)(F)F)C(=O)N1C[C@H]2[C@@H]([C@H]1C(=O)N[C@H](C#N)C[C@@H]1CCNC1=O)[C@H]1CC[C@@H]2C12CC2 [Example 18, (1′R,2′S,3′S,6′R,7′S)—N-[(1S)-1-cyano-2-[(3S)-2-oxopyrrolidin-3-yl]ethyl]-4′-[(2S)-3,3-dimethyl-2-(2,2,2-trifluoroacetamido)butanoyl]-4′-azaspiro[cyclopropane-1,10′-tricyclo[5.2.1.0^{2,6}]decane]-3′-carboxamide]						> 10000 nM	< 20 nM	≥ 10000 nM	< 100 nM	< 100 nM	100 to 1000 nM		
CC(C)(C)[C@H](NC(=O)c1ccco1)C(=O)N1C[C@H]2[C@@H]([C@H]1C(=O)N[C@H](C#N)C[C@@H]1CCNC1=O)[C@H]1C=C[C@@H]2C1 [Example 19, (1S,3aR,4S,7R,7aS)-N-((S)-1-cyano-2-((S)-2-oxopyrrolidin-3-yl)ethyl)-2-((S)-2-(furan-2-carboxamido)-3,3-dimethylbutanoyl)-2,3,3a,4,7,7a-hexahydro-1H-4,7-methanoisoindole-1-carboxamide]						> 10000 nM	20 to 200 nM	≥ 10000 nM	< 100 nM	100 to 1000 nM	100 to 1000 nM		
C#CC(C)(C)[C@H](NC(=O)C(F)(F)F)C(=O)N1C[C@@H]2[C@@H]3CC[C@@H](C3)[C@@H]2[C@H]1C(=O)N[C@H](C#N)C[C@@H]1CCNC1=O [Example 13, (1S,2S,3S,6R,7R)—N-[(1S)-1-cyano-2-[(3S)-2-oxopyrrolidin-3-yl]ethyl]-4-[(2S)-3,3-dimethyl-2-(2,2,2-trifluoroacetamido)pent-4-ynoyl]-4-azatricyclo[5.2.1.0^{2,6}]decane-3-carboxamide]						> 10000 nM	20 to 200 nM	≥ 10000 nM	100 to 1000 nM	< 100 nM	< 100 nM		
CC(C)(C)[C@H](NC(=O)C(F)(F)F)C(=O)N1C[C@H]2[C@@H]([C@H]1C(=O)N[C@H](C#N)C[C@@H]1CC3(CC3)NC1=O)[C@H]1C=C[C@@H]2C1 [Example 14, (1S,3aR,4S,7R,7aS)-N-((S)-1-cyano-2-((R)-5-oxo-4-azaspiro[2.4]heptan-6-yl)ethyl)-2-((S)-3,3-dimethyl-2-(2,2,2-trifluoroacetamido)butanoyl)-2,3,3a,4,7,7a-hexahydro-1H-4,7-methanoisoindole-1-carboxamide]						> 10000 nM	< 20 nM	≥ 10000 nM	< 100 nM	< 100 nM	< 100 nM		
